Assay results as given in BindingDB's records for doi:10.1007/s12154-010-0040-8 (Svims University, 2010).

target: T1, UDP-N-acetylmuramoylalanine--D-glutamate ligase (Leptospira interrogans serogroup Icterohaemorrhagiae serovar Lai (strain 56601), UniProt Q8F7V4); assay: Inhibition Assay
T1 sequence (Q8F7V4 whole entry): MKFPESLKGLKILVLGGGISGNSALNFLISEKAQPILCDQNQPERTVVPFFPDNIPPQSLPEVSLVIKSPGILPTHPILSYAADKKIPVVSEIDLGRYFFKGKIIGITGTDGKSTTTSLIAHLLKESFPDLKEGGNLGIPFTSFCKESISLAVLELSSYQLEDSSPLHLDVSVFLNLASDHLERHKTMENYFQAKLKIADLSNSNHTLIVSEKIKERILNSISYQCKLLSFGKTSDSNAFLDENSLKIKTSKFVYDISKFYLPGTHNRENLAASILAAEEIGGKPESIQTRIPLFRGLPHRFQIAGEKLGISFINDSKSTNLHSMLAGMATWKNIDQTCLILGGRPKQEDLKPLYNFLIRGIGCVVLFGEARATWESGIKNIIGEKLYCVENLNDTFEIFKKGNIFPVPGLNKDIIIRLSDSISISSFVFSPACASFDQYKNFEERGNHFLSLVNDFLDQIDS
From the text: Inhibiton assay using MurgD.

IC50 [µM] | SMILES
95 | C[C@@H](NC(=O)C=Cc1ccc2c(c1)OCO2)P(=O)(O)CC(CCC(=O)O)C(=O)O (stereo partly drawn) [Phosphinate inhibitor 1]
78 | C[C@H](NS(=O)(=O)Cc1ccc([N+](=O)[O-])cc1)C(=O)N[C@@H](C)P(=O)(O)CC(CCC(=O)O)C(=O)O (stereo partly drawn) [Phosphinate inhibitor 2]

SMILES | IC50 [µM]
O=C(O)c1cc(C(=O)O)cc(-c2ccc(/C=C3\SC(=S)N(c4ccc5c(c4)OCO5)C3=O)o2)c1 [Benzene 1,3-dicarvboxylic acid inhibitor] | 270
